Measured values reported in the NIST ThermoML archive (doi:10.1021/je060271a).

Conditions: 283.15 K, Liquid, Vibrating tube method

CCCCC(=O)OCC(COC(=O)CCCC)(COC(=O)CCCC)COC(=O)CCCC [pentaerythritol tetrapentanoate]
Conditions	mass density [kg/m3]
17085 kPa	1036.8
17119 kPa	1037
17147 kPa	1036.9
17175 kPa	1036.9
17208 kPa	1036.9
17236 kPa	1036.9
17270 kPa	1036.9
17299 kPa	1037
17327 kPa	1037
17355 kPa	1037.1
17390 kPa	1037
17419 kPa	1037.1
17449 kPa	1037.2
17478 kPa	1037
17514 kPa	1037
17542 kPa	1037.2
17572 kPa	1037.1
17607 kPa	1037.1
17637 kPa	1037.4
17666 kPa	1037.2
17702 kPa	1037.3
17732 kPa	1037.2
17762 kPa	1037.3
17798 kPa	1037.3
17829 kPa	1037.1
17860 kPa	1037.4
17890 kPa	1037.4
17927 kPa	1037.2
17958 kPa	1037.4
17995 kPa	1037.4
18026 kPa	1037.4
18058 kPa	1037.4
18097 kPa	1037.4
18130 kPa	1037.4
18164 kPa	1037.4
18197 kPa	1037.5
18237 kPa	1037.5
18262 kPa	1037.5
18283 kPa	1037.6
18309 kPa	1037.6
18330 kPa	1037.6
18356 kPa	1037.5
18377 kPa	1037.6
18399 kPa	1037.6
18421 kPa	1037.6
18446 kPa	1037.8
18468 kPa	1037.6
18490 kPa	1037.7
18517 kPa	1037.7
18539 kPa	1037.6
18561 kPa	1037.7
18588 kPa	1037.6
18610 kPa	1037.8
18631 kPa	1037.7
18657 kPa	1037.6
18680 kPa	1037.8
18702 kPa	1037.9
18728 kPa	1037.6
18750 kPa	1037.7
18778 kPa	1037.8
18800 kPa	1037.8
18823 kPa	1037.9
18845 kPa	1037.8
18874 kPa	1037.8
18896 kPa	1037.8
18919 kPa	1037.9
18947 kPa	1037.9
18970 kPa	1037.8
18993 kPa	1037.9
19021 kPa	1038
19044 kPa	1037.9
19067 kPa	1037.8
19094 kPa	1037.9
19118 kPa	1038
19142 kPa	1038.1
19166 kPa	1038
19191 kPa	1038
19219 kPa	1038
19243 kPa	1038
19266 kPa	1038
19295 kPa	1038.2
19319 kPa	1038
19343 kPa	1038
19372 kPa	1038.2
19397 kPa	1038.1
19420 kPa	1038.2
19450 kPa	1038.1
19475 kPa	1038.1
19501 kPa	1038.1
19525 kPa	1038.2
19550 kPa	1038.2
19579 kPa	1038.2
19603 kPa	1038.3
19633 kPa	1038.3
19658 kPa	1038.2
19682 kPa	1038.1
19707 kPa	1038.3
19738 kPa	1038.4
19763 kPa	1038.4
19788 kPa	1038.3
19818 kPa	1038.4
19844 kPa	1038.3
19874 kPa	1038.4
19900 kPa	1038.3
19925 kPa	1038.5
19951 kPa	1038.5
19982 kPa	1038.5
20007 kPa	1038.5
20033 kPa	1038.5
20064 kPa	1038.4
20090 kPa	1038.5
20121 kPa	1038.5
20147 kPa	1038.5
20174 kPa	1038.5
20200 kPa	1038.6
20232 kPa	1038.5
20259 kPa	1038.7
20286 kPa	1038.5
20318 kPa	1038.6
20344 kPa	1038.6
20376 kPa	1038.6
20403 kPa	1038.6
20430 kPa	1038.8
20462 kPa	1038.6
20490 kPa	1038.7
20517 kPa	1038.7
20550 kPa	1038.8
20578 kPa	1038.8
20607 kPa	1038.8
20634 kPa	1038.9
20667 kPa	1038.8
20695 kPa	1038.8
20723 kPa	1038.8
20756 kPa	1038.9
20784 kPa	1038.9
20812 kPa	1038.9
20846 kPa	1038.9
20875 kPa	1039
20904 kPa	1038.9
20938 kPa	1038.9
20966 kPa	1038.9
20995 kPa	1039
21029 kPa	1039
21058 kPa	1039.1
21086 kPa	1039.2
21116 kPa	1039
21151 kPa	1039
21180 kPa	1039.1
21215 kPa	1039.1
21244 kPa	1039.2
21274 kPa	1039.1
21303 kPa	1039.1
21340 kPa	1039.1
21369 kPa	1039.2
21399 kPa	1039.1
21435 kPa	1039.2
21464 kPa	1039.2
21495 kPa	1039.3
21531 kPa	1039.4
21561 kPa	1039.3
21592 kPa	1039.3
21628 kPa	1039.2
21658 kPa	1039.2
21689 kPa	1039.3
21727 kPa	1039.4
21760 kPa	1039.4
21791 kPa	1039.4
21822 kPa	1039.5
21860 kPa	1039.5
21891 kPa	1039.5
21922 kPa	1039.5
21954 kPa	1039.5
21992 kPa	1039.5
22024 kPa	1039.5
22061 kPa	1039.6
22093 kPa	1039.7
22125 kPa	1039.5
22164 kPa	1039.5
22192 kPa	1039.6
22231 kPa	1039.6
22263 kPa	1039.6
22302 kPa	1039.7
22335 kPa	1039.7
22367 kPa	1039.8
22406 kPa	1039.7
22439 kPa	1039.8
22472 kPa	1039.7
22512 kPa	1039.8
22545 kPa	1039.8
22579 kPa	1039.8
22619 kPa	1040
22654 kPa	1039.9
22687 kPa	1039.9
22721 kPa	1039.9
22762 kPa	1039.8
22796 kPa	1040
22830 kPa	1039.9
22871 kPa	1040
22905 kPa	1040
22947 kPa	1039.9
22982 kPa	1040.1
23016 kPa	1039.9
23059 kPa	1040
23094 kPa	1040.1
23129 kPa	1040.1
23164 kPa	1040.2
23208 kPa	1040.1
23243 kPa	1040.3
23285 kPa	1040.3
23321 kPa	1040.3
23357 kPa	1040.2
23394 kPa	1040.2
23437 kPa	1040.3
23473 kPa	1040.2
23516 kPa	1040.4
23553 kPa	1040.3
23590 kPa	1040.4
23635 kPa	1040.3
23672 kPa	1040.4
23709 kPa	1040.5
23746 kPa	1040.5
23790 kPa	1040.5
23827 kPa	1040.5
23872 kPa	1040.5
23909 kPa	1040.5
23947 kPa	1040.5
24000 kPa	1040.6
24048 kPa	1040.5
24099 kPa	1040.6
24162 kPa	1040.7
24208 kPa	1040.8
24238 kPa	1040.7
24266 kPa	1040.7
24299 kPa	1040.8
24327 kPa	1040.8
24360 kPa	1040.9
24388 kPa	1040.7
24416 kPa	1040.9
24444 kPa	1040.9
24478 kPa	1040.9
24506 kPa	1040.9
24535 kPa	1041
24569 kPa	1040.9
24598 kPa	1041
24626 kPa	1040.9
24660 kPa	1040.9
24689 kPa	1040.9
24718 kPa	1041
24746 kPa	1041
24781 kPa	1041.2
24810 kPa	1041
24845 kPa	1041.1
24874 kPa	1041.2
24903 kPa	1041.1
24934 kPa	1041.1
24964 kPa	1041.1
24999 kPa	1041
25028 kPa	1041.2
25058 kPa	1041.2
25088 kPa	1041.2
25124 kPa	1041.1
25154 kPa	1041.2
25183 kPa	1041.2
25219 kPa	1041.3
25249 kPa	1041.3
25279 kPa	1041.3
25347 kPa	1041.3
25380 kPa	1041.4
25410 kPa	1041.3
25441 kPa	1041.5
25477 kPa	1041.3
25508 kPa	1041.3
25544 kPa	1041.4
25575 kPa	1041.5
25606 kPa	1041.5
25642 kPa	1041.6
25673 kPa	1041.4
25705 kPa	1041.4
25742 kPa	1041.3
25775 kPa	1041.5
25806 kPa	1041.6
25837 kPa	1041.5
25875 kPa	1041.6
25907 kPa	1041.6
25939 kPa	1041.7
25977 kPa	1041.6
26009 kPa	1041.6
26041 kPa	1041.6
26079 kPa	1041.7
26111 kPa	1041.7
26143 kPa	1041.7
26176 kPa	1041.8
26216 kPa	1041.7
26249 kPa	1041.8
26282 kPa	1041.8
26315 kPa	1041.8
26354 kPa	1041.8
26388 kPa	1041.9
26421 kPa	1041.8
26461 kPa	1041.9
26494 kPa	1042
26528 kPa	1041.8
26567 kPa	1042
26601 kPa	1041.9
26635 kPa	1041.9
26669 kPa	1042
26710 kPa	1042
26744 kPa	1042.1
26778 kPa	1042.1
26818 kPa	1042
26853 kPa	1042.1
26893 kPa	1042.1
26928 kPa	1042.1
26963 kPa	1042.2
26997 kPa	1042.1
27039 kPa	1042.2
27074 kPa	1042.2
27110 kPa	1042.3
27152 kPa	1042.2
27187 kPa	1042.3
